Measured values as given in patent US20220143103A1, “COMPOSITION FOR PREVENTING OR TREATING NEUROINFLAMMATORY DISORDERS, COMPRISING BEE VENOM EXTRACT AS ACTIVE INGREDIENT” (priority 2019, published 2022).

Legend:
Type in all cases: cell-based
[1] = test system: TNF-α, IL-1β, IL-6, IL-4, TGF-β in BV-2 cells; assay: qRT-PCR of cytokines in LPS-treated BV-2 cells; settings: BV-2, LPS 1 μg/mL
Protocol: Pro-inflammatory and anti-inflammatory cytokine levels were measured by quantitative reverse transcription polymerase chain reaction (qRT-PCR). Total RNA was extracted from hippocampal tissue using RiboEX (Geneall biotechnology, Seoul, Korea), and cDNA was synthesized using a High-Capacity cDNA Reverse Transcription kit (Thermo Scientific, Waltham, Mass., USA).
qRT-PCR was performed on a 7500 real-time PCR system (Applied Biosystems, Foster City, Calif., USA) for custom designed primers, and β-actin was used as a house-keeping control using a HiPi Real-Time PCR SYBR green master mix (ELPIS biotech, Daejeon, Korea).
A cycling condition consisting of an initial denaturation step of 3 minutes at 94° C., a denaturation step of 30 seconds at 94° C., an annealing step of 30 seconds at 60° C., and an extension step of 1 minute at 72° C., was continued until 40 cycles. Values obtained for target gene expression were normalized to β-actin and quantified for expression in control samples.
Each sample was performed with the primers in Table 2 below.
(§1) Microglia BV-2 was cultured and treated simultaneously with LPS (1 μg/mL) or Aβ1-42 (2.5 μM) and various concentrations of bvPLA2 (0.01, 0.1, 1 μg/mL) dissolved in PBS. Cells were harvested after 24 hours to measure cell viability, Nitric Oxide concentration, and a level of pro-inflammatory cytokines.

[2] = test system: NF-κB (p65, p50, p-IκBα) in BV-2 cells; assay: Western blot of NF-κB subunits and p-IκBα in LPS-treated BV-2 cells; settings: BV-2, LPS 1 μg/mL, bvPLA2 100 ng/mL, NF-κB inhibitor; FIG. 7B
Protocol: (§2) Blots were incubated with corresponding conjugated secondary antibodies such as anti-mouse, anti-rabbit and anti-goat obtained from Santa Cruz Biotechnology Inc. (Santa Cruz, Calif., USA). Immunoreactive proteins were detected with an enhanced chemiluminescence Western blotting detection system.
as §1
To determine whether or not bvPLA2 affects inhibition of NF-κB translocation, the level of the NF-κB subunit in the nucleus of BV-2 cells was measured by Western blot.

[3] = test system: iNOS, COX-2, IBA-1 in BV-2 cells; assay: Western blot of iNOS, COX-2, IBA-1 in LPS-treated BV-2 cells; settings: BV-2, LPS 1 μg/mL
Protocol: To detect target proteins, specific antibodies to iNOS, IBA-1, GFAP, APP and BACE1 (1:1000; Abcam, Inc., Cambridge, UK), COX-2 (1:1000; Novus Biologicals, Inc., CO, USA), c-Jun N-terminal kinase (JNK), extracellular signal-regulated kinase (ERK) 1/2, p-p38 and p38 ([…]; Cell signaling Technology, Inc., MA, USA), p-STAT3, STAT3, p-ERK1/2, p-JNK, and β-actin (1:200; Santa Cruz Biotechnology Inc., Santa Cruz, Calif., USA) were used.
as §2, §1

β-secretase = β-secretase activity assay in LPS-treated BV-2 cells; settings: BV-2, LPS 1 μg/mL, Stattic 1 μM, bvPLA2 1 μg/mL, 24 h; FIG. 21B
Protocol: β-secretase activity in the mouse brain was determined using a commercially available β-secretase activity assay kit (Abcam, Inc., Cambridge, Mass., USA). A solubilized membrane was extracted from brain tissues using a β-secretase extraction buffer, incubated on ice for 1 hour, and centrifuged at 5000×g for 10 minutes at 4° C. to collect supernatant.
A total of 50 μL of sample (100 μg of total protein) or blank (50 μL of β-secretase extraction buffer) was added to each well (96-well plate), then 50 μL of 2× reaction buffer and 2 μL of β-secretase substrate were incubated for 1 hour in a dark room at 37° C. Fluorescence was read at excitation and emission wavelengths of 335 and 495 nm, respectively, using a fluorescence spectrometer (Gemini EM; Molecular Devices, CA, USA).
as §1

Aβ1-42 in BV-2 cells = assay: Aβ1-42 ELISA in LPS-treated BV-2 cells; settings: BV-2, LPS 1 μg/mL, Stattic 1 μM, 24 h
Protocol: Lysates of brain tissue were obtained through a protein extraction buffer containing protease inhibitors. Aβ1-42 and Aβ1-40 levels were measured using the specific mouse β-amyloid peptide 1-42 enzyme-linked immunosorbent assay (ELISA) kit (CSB-E10787m; CUSABIO, Houston, USA) and mouse β-amyloid peptide 1-40 ELISA kit (CSB-E08300m; CUSABIO, Houston, USA), respectively.
To investigate the effect of bvPLA2 on amyloidogenesis in vitro, BV-2 cells were treated with LPS and various concentrations of bvPLA2 (0.01, 0.1, 1 μg/mL) for 24 hours. Aβ1-42 levels in BV-2 cells were determined by ELISA.
The inhibitory effects of a STAT3 inhibitor (Stattic) and the bee venom extracts on amyloid production and neuroinflammation were tested in BV-2 cells. To determine the combination effect of bvPLA2 and Stattic on amyloidogenesis and neuroinflammation in vitro, BV-2 microglia were treated with LPS (1 μg/m L), Stattic (1 μM), or bvPLA2 (1 μg/mL) for 24 h.

Row | Structure (SMILES) | expression levels of TNF-α, IL-1β, and IL-6 (qRT-PCR) ([1]; bvPLA2 100 ng/mL, NF-κB inhibitor, FIG. 7C) | levels of p-IκBα, p65, and p50 [2] | levels of iNOS and COX-2 (Western blot) ([3]; bvPLA2 100 ng/mL, NF-κB inhibitor, FIG. 7A) | expression levels of TNF-α, IL-1β, and IL-6 (qRT-PCR) ([1]; Stattic 1 μM, bvPLA2 1 μg/mL, 24 h, FIG. 21E) | β-secretase activity (β-secretase) | Aβ1-42 level (ELISA) (Aβ1-42 in BV-2 cells) [pg/mg] | intracellular levels of iNOS and COX-2 (Western blot) ([3]; Stattic 1 μM, bvPLA2 1 μg/mL, 24 h, FIG. 21D)
1 | Cc1ccc(S(=O)(=O)/C=C/C#N)cc1 [Bay 11-7802] | decreased | alleviated | decreased | – | – | – | –
2 | O=[N+]([O-])c1ccc2c(c1)S(=O)(=O)C=C2 [Stattic] | – | – | – | decreased | decreased | 264.2 ± 4.384 | decreased
